Like-named read-outs stand apart in the source and are kept apart here.
Columns and labels:
morningglory = assay: Test A pre-/postemergence herbicide test; assay type: in vivo, Ipomoea spp.; details: Ipomoea, 240 h; for pest or weed control at 500 g/ha: 500 g ai/ha; for pest or weed control at 2000 g/ha: 2000 g ai/ha
Summary of the method: (§1)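 Plants are held in greenhouse about ten days after treatment, then compared with untreated controls and scored 0 (no effect) to 100 (complete control). Preemergence dosing is a directed soil spray on sown sandy loam; postemergence dosing is spray to runoff at 2–10 cm height.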

barnyardgrass [1] = assay: Test A pre-/postemergence herbicide test; assay type: in vivo, Echinochloa crus-galli; details: Echinochloa crus-galli, 240 h; for pest or weed control at 500 g/ha: 500 g ai/ha; for pest or weed control at 2000 g/ha: 2000 g ai/ha
Summary of the method: as §1

lambsquarters = assay: Test C pre-/postemergence herbicide test; assay type: in vivo, Chenopodium album; details: for pest or weed control at 62 g/ha: 62 g ai/ha; for pest or weed control at 125 g/ha: 125 g ai/ha; for pest or weed control at 250 g/ha: 250 g ai/ha
Summary of the method: (§2)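 Greenhouse-grown plants were evaluated visually 12 to 14 days after treatment, with 100 meaning complete control and 0 no effect. Application was preemergence, or postemergence at 2 to 18 cm.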

woolly cupgrass = assay: Test C pre-/postemergence herbicide test; assay type: in vivo, Eriochloa villosa; details: for pest or weed control at 125 g/ha: 125 g ai/ha; for pest or weed control at 250 g/ha: 250 g ai/ha
Summary of the method: as §2

barnyardgrass [2] = assay: Test B pre-/postemergence herbicide test; assay type: in vivo, Echinochloa crus-galli; details: Echinochloa crus-galli; for pest or weed control at 125 g/ha: 125 g ai/ha; for pest or weed control at 500 g/ha: 500 g ai/ha
Summary of the method: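 Flooded paddy rice and barnyardgrass were treated at the 2-leaf stage; upland plantings received compound either on sown seed or on 1- to 4-leaf seedlings. All were kept 13–15 days in a greenhouse and scored visually, 0–100, relative to untreated plants.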

large crabgrass = assay: Test B pre-/postemergence herbicide test; assay type: in vivo, Digitaria sanguinalis; details: Digitaria sanguinalis; for pest or weed control at 125 g/ha: 125 g ai/ha; for pest or weed control at 500 g/ha: 500 g ai/ha
Summary of the method: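 Evaluation is visual, comparing treated with control plants on a scale where 0 means no effect and 100 means full control. Treatments were preemergence, or postemergence on seedlings 2–18 cm tall, and held 13–15 days in the greenhouse.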

johnsongrass = assay: Test C pre-/postemergence herbicide test; assay type: in vivo, Sorghum halepense; details: for pest or weed control at 62 g/ha: 62 g ai/ha; for pest or weed control at 125 g/ha: 125 g ai/ha; for pest or weed control at 250 g/ha: 250 g ai/ha
Summary of the method: as §2

[3] = post-emergence, Postemergence, 0 to 100 scale, 0 no effect, 100 complete control, read-out: Plant response rating, Morningglory
[4] = pre-emergence, Preemergence, visual rating, 0 to 100 scale (0 no effect, 100 complete control), read-out: Morningglory plant response rating
[5] = post-emergence, Postemergence, 0 to 100 scale, 0 no effect, 100 complete control, read-out: Plant response rating, Barnyardgrass
[6] = pre-emergence, Preemergence, visual rating, 0 to 100 scale (0 no effect, 100 complete control), read-out: Barnyardgrass plant response rating
[7] = post-emergence, postemergence, visual rating, scale 0 (no effect) to 100 (complete control), read-out: Barnyardgrass plant response rating
[8] = post-emergence, postemergence, visual rating, scale 0 (no effect) to 100 (complete control), read-out: Crabgrass, Large plant response rating
[9] = Chenopodium album, post-emergence, postemergence, scale 0 to 100, read-out: Plant response rating, Lambsquarters
[10] = Postemergence, 500 g ai/ha, scale 0 to 100
[11] = Sorghum halepense, post-emergence, postemergence, scale 0 to 100, read-out: Plant response rating, Johnsongrass

CCN1N=C(C(C)(C)C)CC1C(=O)Nc1cc(C(=O)N(C)C)ccc1F (stereo not shown) [Compound 268, N-[5-[(dimethylamino)carbonyl]-2-fluorophenyl]-3-(1,1-dimethylethyl)-1-ethyl-4,5-dihydro-1H-pyrazole-5-carboxamide]
pest or weed control at 500 g/ha (morningglory; post-emergence, Postemergence, 0 to 100 scale, 0 no effect, 100 complete control, read-out: Morningglory plant response rating): 20% | pest or weed control at 2000 g/ha (morningglory; [3]): 40% | pest or weed control at 2000 g/ha (morningglory; [4]): 25% | pest or weed control at 500 g/ha (morningglory; pre-emergence, preemergence, visual injury, 0 to 100 scale (0 no effect, 100 complete control), read-out: Morningglory plant response rating): 5% | pest or weed control at 500 g/ha (barnyardgrass [1]; post-emergence, Postemergence, 0 to 100 scale, 0 no effect, 100 complete control, read-out: Barnyardgrass plant response rating): 80% | pest or weed control at 2000 g/ha (barnyardgrass [1]; [5]): 80% | pest or weed control at 2000 g/ha (barnyardgrass [1]; [6]): 100% | pest or weed control at 500 g/ha (barnyardgrass [1]; pre-emergence, preemergence, visual injury, 0 to 100 scale (0 no effect, 100 complete control), read-out: Barnyardgrass plant response rating): 100% | pest or weed control at 62 g/ha (lambsquarters; Chenopodium album, pre-emergence, preemergence, scale 0 to 100, read-out: Plant response rating, Lambsquarters): 100% | pest or weed control at 125 g/ha (lambsquarters; Chenopodium album, pre-emergence, scale 0 (no effect) to 100 (complete control), visual, 12 to 14 days, read-out: Plant response rating, Lambsquarters): 100% | pest or weed control at 250 g/ha (lambsquarters; Chenopodium album, pre-emergence, scale 0-100, read-out: Plant response rating, Lambsquarters): 100% | pest or weed control at 500 g/ha (lambsquarters; Chenopodium album, pre-emergence, 500 g ai/ha, scale 0 to 100 (0 no effect, 100 complete control), visual, 12 to 14 days, read-out: Plant response rating, Lambsquarters): 100% | pest or weed control at 62 g/ha (woolly cupgrass; Eriochloa villosa, pre-emergence, 312 h, 62 g ai/ha, preemergence, scale 0 to 100, read-out: Plant response rating, Cupgrass, Woolly): 50% | pest or weed control at 125 g/ha (woolly cupgrass; Eriochloa villosa, pre-emergence, 312 h, scale 0 (no effect) to 100 (complete control), visual, 12 to 14 days, read-out: Plant response rating, Cupgrass, Woolly): 70% | pest or weed control at 250 g/ha (woolly cupgrass; Eriochloa villosa, pre-emergence, 312 h, scale 0-100, read-out: Plant response rating, Cupgrass, Woolly): 95% | pest or weed control at 500 g/ha (woolly cupgrass; Eriochloa villosa, pre-emergence, 312 h, 500 g ai/ha, scale 0 to 100 (0 no effect, 100 complete control), visual, 12 to 14 days, read-out: Plant response rating, Cupgrass, Woolly): 95% | pest or weed control at 125 g/ha (barnyardgrass [2]; [7]): 0% | pest or weed control at 500 g/ha (barnyardgrass [2]; [7]): 30% | pest or weed control at 125 g/ha (barnyardgrass [2]; pre-emergence, 0 = no effect, 100 = complete control, read-out: Barnyardgrass plant response rating (0 to 100 scale)): 100% | pest or weed control at 500 g/ha (barnyardgrass [2]; pre-emergence, visual rating, 0 = no effect, 100 = complete control, read-out: Plant response rating, Barnyardgrass): 100% | pest or weed control at 125 g/ha (large crabgrass; [8]): 0% | pest or weed control at 500 g/ha (large crabgrass; post-emergence, postemergence, scale 0 to 100, 0 is no effect, 100 is complete control, read-out: Crabgrass, Large plant response rating): 20% | pest or weed control at 125 g/ha (large crabgrass; pre-emergence, 0 = no effect, 100 = complete control, read-out: Crabgrass, Large plant response rating (0 to 100 scale)): 100% | pest or weed control at 500 g/ha (large crabgrass; pre-emergence, visual rating, 0 = no effect, 100 = complete control, read-out: Plant response rating, Crabgrass, Large): 100% | pest or weed control at 62 g/ha (johnsongrass; Sorghum halepense, pre-emergence, preemergence, scale 0 to 100, read-out: Plant response rating, Johnsongrass): 70% | pest or weed control at 125 g/ha (johnsongrass; Sorghum halepense, pre-emergence, scale 0 (no effect) to 100 (complete control), visual, 12 to 14 days, read-out: Plant response rating, Johnsongrass): 90% | pest or weed control at 250 g/ha (johnsongrass; Sorghum halepense, pre-emergence, scale 0-100, read-out: Plant response rating, Johnsongrass): 100% | pest or weed control at 500 g/ha (johnsongrass; Sorghum halepense, pre-emergence, 500 g ai/ha, scale 0 to 100 (0 no effect, 100 complete control), visual, 12 to 14 days, read-out: Plant response rating, Johnsongrass): 100%

CCn1nc(C(C)(C)C)cc1C(=O)Nc1cccc(C(=O)OCCF)c1 [Compound 82, 2-fluoroethyl 3-[[[3-(1,1-dimethylethyl)-1-ethyl-1H-pyrazol-5-yl]-carbonyl]amino]benzoate]
pest or weed control at 500 g/ha (morningglory; [3]): 20% | pest or weed control at 2000 g/ha (morningglory; [3]): 10% | pest or weed control at 500 g/ha (morningglory; [4]): 0% | pest or weed control at 2000 g/ha (morningglory; pre-emergence, Preemergence, 0 to 100 scale, 0 no effect, 100 complete control, read-out: Morningglory plant response rating): 15% | pest or weed control at 500 g/ha (barnyardgrass [1]; [5]): 20% | pest or weed control at 2000 g/ha (barnyardgrass [1]; [5]): 20% | pest or weed control at 500 g/ha (barnyardgrass [1]; [6]): 0% | pest or weed control at 2000 g/ha (barnyardgrass [1]; pre-emergence, Preemergence, 0 to 100 scale, 0 no effect, 100 complete control, read-out: Barnyardgrass plant response rating): 0% | pest or weed control at 250 g/ha (lambsquarters; Chenopodium album, post-emergence, Postemergence, scale 0 to 100, 0 no effect, 100 complete control, read-out: Plant response rating, Lambsquarters): 80% | pest or weed control at 125 g/ha (lambsquarters; [9]): 50% | pest or weed control at 62 g/ha (lambsquarters; [9]): 30% | Lambsquarters plant response rating (lambsquarters; [10]): 100 | pest or weed control at 250 g/ha (woolly cupgrass; Eriochloa villosa, post-emergence, 312 h, Postemergence, scale 0 to 100, 0 no effect, 100 complete control, read-out: Plant response rating, Cupgrass, Woolly): 80% | pest or weed control at 125 g/ha (woolly cupgrass; Eriochloa villosa, post-emergence, 312 h, postemergence, scale 0 to 100, read-out: Plant response rating, Cupgrass, Woolly): 60% | Cupgrass, Woolly plant response rating (woolly cupgrass; [10]): 80 | pest or weed control at 500 g/ha (barnyardgrass [2]; post-emergence, Postemergence, visual rating after 13 to 15 days, scale 0 (no effect) to 100 (complete control), read-out: Plant response rating, Barnyardgrass): 20% | pest or weed control at 125 g/ha (barnyardgrass [2]; [7]): 10% | pest or weed control at 500 g/ha (barnyardgrass [2]; pre-emergence, Preemergence, scale 0 to 100, read-out: Barnyardgrass plant response rating): 0% | pest or weed control at 125 g/ha (barnyardgrass [2]; pre-emergence, preemergence, 0 to 100 scale, 0 is no effect, 100 is complete control, read-out: Plant response rating, Barnyardgrass): 0% | pest or weed control at 500 g/ha (large crabgrass; post-emergence, Postemergence, visual rating after 13 to 15 days, scale 0 (no effect) to 100 (complete control), read-out: Plant response rating, Crabgrass, Large): 20% | pest or weed control at 125 g/ha (large crabgrass; [8]): 10% | pest or weed control at 500 g/ha (large crabgrass; pre-emergence, Preemergence, scale 0 to 100, read-out: Crabgrass, Large plant response rating): 0% | pest or weed control at 125 g/ha (large crabgrass; pre-emergence, preemergence, 0 to 100 scale, 0 is no effect, 100 is complete control, read-out: Plant response rating, Crabgrass, Large): 0% | Johnsongrass plant response rating (johnsongrass; [10]): 10 | pest or weed control at 250 g/ha (johnsongrass; Sorghum halepense, post-emergence, Postemergence, scale 0 to 100, 0 no effect, 100 complete control, read-out: Plant response rating, Johnsongrass): 5% | pest or weed control at 125 g/ha (johnsongrass; [11]): 0% | pest or weed control at 62 g/ha (johnsongrass; [11]): 0%

Reference: patent US20060069132A1, “Azolecarboxamide herbicides” (priority 2004, published 2006)
